Here are results for 2 molecules from publication PMC8411703 (Frontiers in Pharmacology, 2021).

The procedure of data set [1]:
This study was a prospective, multicentric, PK/PD study. It included pediatric patients who were admitted to the pediatric ICU between July 2017 and November 2019 at two hospitals in Santiago, Chile. The Ethical Committee for Research of Clinica Las Condes approved this prospective study (approval number: M012017) and required signed written informed consent from each patient’s parents. […] Neonates were excluded.
Meropenem was administered as a 3-h infusion with intravenous doses of 20–40 mg/kg every 8 or 12 h. […] Both antibiotics’ doses were adjusted according to renal function. Blood samples were collected at 1 and 3 h post-infusion and before the following dose for meropenem.
Unbound meropenem plasma concentrations were determined by high-performance liquid chromatography (Agilent Infinity 1,260, Santa Clara, United States) with a UV detector. The methodology was adapted to the equipment conditions from available publications ([Elkhaïli et al., 1996]; [McWhinney et al., 2010]; [Wolff et al., 2013]) and validated according to the recommendations of the Bioanalytical Method Validation Guidance for Industry ([U.S. Department of Health and Human Services, 2018]). The stationary phase was a Zorbax Eclipse Plus C18 column (3.5 μm, 75 × 4.6 mm) and the mobile phase was acetonitrile with 10 mM ammonium acetate (pH 4.0) (5:95, organic solvent:buffer initiallity) in gradient to minute 7(50:50, organic solvent:buffer). Meropenem was detected by UV detection at 298 nm. The flow rate was 1.0 ml/min. […] Standard curves were prepared in blank human plasma. […] Meropenem in plasma samples was quantified using the peak area of standard samples for calibrations.
For both analytes, the measurement was performed on the free-drug, non-protein bound fraction.
Pharmacokinetic modelling was performed using PMetrics 1.5.0 with RStudio 0.99.902 and digital compiler Gfortran 5.2. […] Primary pharmacokinetic parameters of CL and Vd for the central compartment were calculated. Elimination from the central compartment and inter-compartmental distribution were modelled as first-order processes. Inter-compartmental distribution was described as rate of transfer from the unbound compartment to a peripheral compartment (Kcp) and rate of transfer from a peripheral compartment to the unbound compartment (Kpc). […] Volume of the peripheral compartment (Vp) was calculated as (Vc*Kcp)/Kpc, where Vc is the volume of the central compartment. Total Vd was calculated as the sum of Vc and Vp.
We selected the final model on the basis of minimizing the Akaike Information Criterion (AIC) and likelihood of the nested models (-2*Log-likelihood, -2*LL), with both criteria penalized by the number of parameters in the model. A reduction of -2*LL as calculated within Pmetrics was used for statistical comparison of nested models. We also factored bias (mean weighted predicted-observed error) and imprecision (bias-adjusted, mean weighted squared predicted-observed error) and correlation co-efficient into the selection of the final model. Shrinkage was calculated as the percentage of total variance in each model probability distribution.
Covariate model building was performed using sequential assessment of biologically plausible clinical characteristics. Continuous data was used for all covariates tested, with the exception of gender, which was male/female. The association of the covariates versus parameters was assessed by regression with linear or non-linear associations able to be used in the covariate model testing with inclusion based upon biological plausibility and a statistically significant improvement in log-likelihood. Inclusion age (months), weight (kg), height (cm), gender, C-reactive protein (mg/L), albumin (g/L), total bilirubin (mg/dl), serum creatinine (mg/dl), 24-h hydric balance (ml).

Data set [2] has as its system Pseudomonas aeruginosa. The following applies: in vivo.
Procedure: For meropenem analysis, we used the plasma concentration at 1 h after the end of a 3-h infusion of the drug corresponding to a dosing interval of 50%.
For data set [3] the following is noted: in vivo; cited from earlier work.
Details of data set [4]: method as in Rybak, 2006. The following applies: ref Rybak, 2006; cited from earlier work.
The mark [5] stands for this setting: pediatric ECMO patients, 11 PK profiles, population median.

`C[C@@H](O)[C@H]1C(=O)N2C(C(=O)O)=C(S[C@@H]3CN[C@H](C(=O)N(C)C)C3)[C@H](C)[C@H]12` [meropenem]: in data set [1] (human, in vivo), the “CL (clearance of meropenem), median” value is 2.4 mL/min/kg; the “Kcp (rate of transfer central to peripheral compartment), meropenem, mean” value turned out to be 1.37 h⁻¹; the “Kcp, meropenem, median” value stood at 1.30 h⁻¹; the “Kpc (rate of transfer peripheral to central compartment), meropenem, mean” value turned out to be 1.25 h⁻¹. Also, in data set [1] (human, in vivo), the “Kpc, meropenem, median” value was found to be 1.34 h⁻¹; the “Vc (central volume of distribution of meropenem), median” value stood at 0.289 L/kg; the “Vd (vc + vp), meropenem, mean” value is 0.606 L/kg; the “Vp (Vc*kcp/kpc), meropenem, mean” value turned out to be 0.317 L/kg. In data set [2], the “PK profiles achieving PK/PD target fT 50% > 4 x MIC” value amounted to 91%. Also, in data set [3], the “meropenem clearance in most reported studies, range” value was 2.17 to 17.55 mL/min/kg.

On to `CN[C@H](CC(C)C)C(=O)N[C@H]1C(=O)N[C@@H](CC(N)=O)C(=O)N[C@H]2C(=O)N[C@H]3C(=O)N[C@H](C(=O)N[C@H](C(=O)O)c4cc(O)cc(O)c4-c4cc3ccc4O)[C@H](O)c3ccc(c(Cl)c3)Oc3cc2cc(c3O[C@@H]2O[C@H](CO)[C@@H](O)[C@H](O)[C@H]2O[C@H]2C[C@](C)(N)[C@H](O)[C@H](C)O2)Oc2ccc(cc2Cl)[C@H]1O` [vancomycin], for which the “Kcp (rate of transfer central to peripheral compartment), vancomycin, mean” value in data set [1] (pediatric ECMO patients, 11 PK profiles, population mean) is 0.483 h⁻¹. For the same molecule, in data set [1] (setting [5]), the “Kcp, vancomycin, median” value was determined as 0.481 h⁻¹ and the “Kpc, vancomycin, median” value is 0.286 h⁻¹. The elimination route result in data set [4] was “nearly completely renally eliminated”.
